Laboratory results published in patent US20210244057A1, “SWEETENER POWDER COMPOSITION AND PREPARATION METHOD THEREFOR” (SAMYANG CORPORATION, priority 2018, published 2021).

Columns and labels:
[1] = Sensory evaluation of sweetener powder by 15 panelists; assay type: in vivo; conditions: score on a scale of 5 points, 10% Brix solution
Protocol: For the sensory evaluation, the powders prepared in Examples 5 and 6 were used as an experimental group, and sugar was used as a control group. Each sample was dissolved to a concentration of 10% Brix and prepared to become the same temperature. 10 ml of each sample was collected and provided. It was expressed as a three-digit number randomly extracted using a random number table. The sample presentation order was always randomly determined, and a lukewarm water that could rinse the mouth was provided together to inspectors. The sensory laboratory was maintained at a constant temperature (25±1° C.) and no odor.
The sensory inspectors selected 15 panelists who have a high level of understanding of sensory tests and have experience in sensory tests. Training was conducted three times a week for one month, and it took an average of 30 minutes for each training session. As for the content and method of evaluation, the score was evaluated on a scale of 5 points for the intensity of sweet taste, persistence of sweet taste, body taste, and bitter taste of the control group and the experimental group. The criteria of sweet taste intensity was compared with the standard sample sugar 10% solution as 4.5 points. The closer to 1 point, the lighter the body taste, and the closer to 5 points, the heavier the taste was.

[2] = Glass transition temperature (Tg) by differential scanning calorimetry (DSC), ASTM D3418; assay type: physicochemical; conditions: raw material: crystalline allulose in powder state
Protocol: In order to measure the glass transition temperature value (Tg) of the powder product obtained in Examples 1 to 4, and Example 6, differential scanning calorimetry (DSC) analysis was performed according to the method of ASTM D3418, and the specific DSC analysis conditions are as follows.
Equipment name: DSC[differential scanning calorimetry]
Manufacturer: Perkin Elmer
Method: 30 to 250° C., 10° C./min temperature rise, N2 gas purge
The liquid product of Comparative Example 1 was not spray-dried, and measured by the glass transition temperature of the powder obtained by freeze-drying the liquid product. Allulose was measured by the glass transition temperature of crystalline allulose, Reference Example 2 was measured by the glass transition temperature of commercially available indigestible maltodextrin (Samyang Corporation, indigestible maltodextrin, DE 14.9, dietary fiber content 85%), and Reference Example 3 and Reference Example 4 were measured by pulverizing commercially available maltodextrin (Samyang Corporation., Genedex) and commercially available starch syrup (Samyang Corporation, low-intensity starch syrup) at the glass transition temperature.

Row | Tg [2] | SMILES | Body taste ([1]; 1 = lighter, 5 = heavier) | Bitter residual taste [1] | Sweet taste persistence [1] | Sweet taste ([1]; sugar 10% solution standard = 4.5 points)
1 |  | OC[C@H]1O[C@@](CO)(O[C@H]2O[C@H](CO)[C@@H](O)[C@H](O)[C@H]2O)[C@@H](O)[C@@H]1O [Control group, sugar] | 3.3 | 2.2 | 3.2 | 4.3
2 | −5.5 °C | O=C(CO)C(O)C(O)C(O)CO (centres unmarked) [Crystalline allulose, allulose] |  |  |  | 
